Experimental data taken from patent publication US12359182B2, “Polypeptide variants” (Novozymes A/S, priority 2020, dated 2025).

How the values were obtained:
[1] = molecular target: Bifidobacterium bifidum lactase (SEQ ID NO: 1) variant V1R (Bifidobacterium bifidum, UniProt A4K5H9, V33R); format: biochemical; conditions: D-(+)-Galactose 80 mM, ONPG 10.66 mM, pH 6.0, 30 min at 23° C., ratio of activity with/without galactose relative to wild type SEQ ID NO: 1 (IF=1.0), above 1 = decreased galactose inhibition
Method: (§1) Stop solution is added (Na2CO3, 10% w/v in H2O), and the absorbance at 405 nm is recorded. “Abs405 Galactose sample” is the absorbance for the lactase grown in assay solution, “Abs405 Galactose Blank” is the absorbance for non-inoculated assay solution, “Abs405 Reference sample” is the absorbance for the lactase grown in reference solution, and “Abs405 Reference Blank” is the absorbance for non-inoculated reference solution.

[2] = molecular target: Bifidobacterium bifidum lactase (SEQ ID NO: 1) variant V1D (Bifidobacterium bifidum, UniProt A4K5H9, V33D); format: biochemical; conditions: D-(+)-Galactose 80 mM, ONPG 10.66 mM, pH 6.0, 30 min at 23° C., ratio of activity with/without galactose relative to wild type SEQ ID NO: 1 (IF=1.0), above 1 = decreased galactose inhibition
Method: as §1

[3] = molecular target: Bifidobacterium bifidum lactase (SEQ ID NO: 1) variant E2G (Bifidobacterium bifidum, UniProt A4K5H9, E34G); format: biochemical; conditions: D-(+)-Galactose 80 mM, ONPG 10.66 mM, pH 6.0, 30 min at 23° C., ratio of activity with/without galactose relative to wild type SEQ ID NO: 1 (IF=1.0), above 1 = decreased galactose inhibition
Method: as §1

[4] = molecular target: Bifidobacterium bifidum lactase (SEQ ID NO: 1) variant V1K (Bifidobacterium bifidum, UniProt A4K5H9, V33K); format: biochemical; conditions: D-(+)-Galactose 80 mM, ONPG 10.66 mM, pH 6.0, 30 min at 23° C., ratio of activity with/without galactose relative to wild type SEQ ID NO: 1 (IF=1.0), above 1 = decreased galactose inhibition
Method: as §1

[5] = molecular target: Bifidobacterium bifidum lactase (SEQ ID NO: 1) variant V1F (Bifidobacterium bifidum, UniProt A4K5H9, V33F); format: biochemical; conditions: D-(+)-Galactose 80 mM, ONPG 10.66 mM, pH 6.0, 30 min at 23° C., ratio of activity with/without galactose relative to wild type SEQ ID NO: 1 (IF=1.0), above 1 = decreased galactose inhibition
Method: as §1

[6] = molecular target: Bifidobacterium bifidum lactase, parent, SEQ ID NO: 1 (Bifidobacterium bifidum, UniProt A4K5H9); assay: galactose inhibition assay (GI-IF), ONPG hydrolysis with and without D-(+)-Galactose (80 mM), Abs405; format: biochemical; conditions: ONPG 10.66 mM, MES 100 mM, pH 6.0, 30 min at 23° C., normalized reference
Method: as §1

[7] = test system: Bifidobacterium bifidum lactase of SEQ ID NO: 1, variant G856E; assay: biochemical; conditions: pH 6.5; E856 relative to G856
Description: (§2) *Note regarding backbone: Some clones of our template backbone for the site saturation library (SEQ ID NO: 1) contain a G856E mutation, so all substitution variants we describe are in the backbone context of SEQ ID NO: 1 with either Gly or Glu at position 856.

[8] = molecular target: T1, Bifidobacterium bifidum lactase, SEQ ID NO: 1 (G856 backbone) (Bifidobacterium bifidum, UniProt A4K5H9); assay: biochemical
T1 construct: purified sample
Description: as §2

[9] = molecular target: T2, Bifidobacterium bifidum lactase of SEQ ID NO: 1, variant G856E (Bifidobacterium bifidum, UniProt A4K5H9, G888E); assay: biochemical
T2 construct: purified sample
T2 sequence (A4K5H9 33-1336 G888E): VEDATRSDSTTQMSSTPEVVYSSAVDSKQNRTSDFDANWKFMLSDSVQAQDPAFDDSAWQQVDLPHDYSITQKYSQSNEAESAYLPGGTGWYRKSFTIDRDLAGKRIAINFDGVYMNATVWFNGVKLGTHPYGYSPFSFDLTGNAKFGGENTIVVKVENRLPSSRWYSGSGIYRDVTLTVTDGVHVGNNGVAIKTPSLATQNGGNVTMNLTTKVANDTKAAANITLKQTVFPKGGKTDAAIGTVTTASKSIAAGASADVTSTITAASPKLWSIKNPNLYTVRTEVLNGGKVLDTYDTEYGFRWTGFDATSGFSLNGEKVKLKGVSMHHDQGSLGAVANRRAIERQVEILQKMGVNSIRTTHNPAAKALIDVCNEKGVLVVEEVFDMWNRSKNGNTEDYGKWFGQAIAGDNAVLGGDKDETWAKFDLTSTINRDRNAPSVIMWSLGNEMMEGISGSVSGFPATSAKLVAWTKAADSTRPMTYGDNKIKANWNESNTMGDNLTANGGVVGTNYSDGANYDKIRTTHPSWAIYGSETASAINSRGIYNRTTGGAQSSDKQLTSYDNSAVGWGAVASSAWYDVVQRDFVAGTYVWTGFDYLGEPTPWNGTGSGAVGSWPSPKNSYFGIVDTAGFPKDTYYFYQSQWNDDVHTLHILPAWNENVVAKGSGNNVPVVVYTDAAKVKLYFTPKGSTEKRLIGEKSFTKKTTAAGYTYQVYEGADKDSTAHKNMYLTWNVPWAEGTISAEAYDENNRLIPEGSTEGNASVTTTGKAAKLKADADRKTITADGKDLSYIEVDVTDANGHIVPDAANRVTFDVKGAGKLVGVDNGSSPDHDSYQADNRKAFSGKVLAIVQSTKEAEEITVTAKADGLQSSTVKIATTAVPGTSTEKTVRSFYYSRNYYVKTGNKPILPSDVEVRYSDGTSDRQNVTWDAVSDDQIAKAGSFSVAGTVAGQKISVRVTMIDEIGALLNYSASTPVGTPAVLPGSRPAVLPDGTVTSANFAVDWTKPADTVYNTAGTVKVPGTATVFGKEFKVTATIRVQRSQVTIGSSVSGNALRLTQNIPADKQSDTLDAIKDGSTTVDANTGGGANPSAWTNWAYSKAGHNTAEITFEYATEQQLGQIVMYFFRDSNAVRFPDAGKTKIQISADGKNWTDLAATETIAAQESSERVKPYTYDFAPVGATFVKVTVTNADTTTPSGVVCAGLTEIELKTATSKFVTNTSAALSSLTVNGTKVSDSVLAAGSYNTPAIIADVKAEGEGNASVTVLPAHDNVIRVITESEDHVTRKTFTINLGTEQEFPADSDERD
Description: as §2

[10] = test system: Bifidobacterium bifidum lactase of SEQ ID NO: 1, variant G856E; assay: Km at pH 6.5, backbone with Glu at position 856 (purified samples); format: biochemical; conditions: E856 relative to G856
Description: as §2

Sequence of Bifidobacterium bifidum lactase, parent, SEQ ID NO: 1 (A4K5H9 entry or part of it): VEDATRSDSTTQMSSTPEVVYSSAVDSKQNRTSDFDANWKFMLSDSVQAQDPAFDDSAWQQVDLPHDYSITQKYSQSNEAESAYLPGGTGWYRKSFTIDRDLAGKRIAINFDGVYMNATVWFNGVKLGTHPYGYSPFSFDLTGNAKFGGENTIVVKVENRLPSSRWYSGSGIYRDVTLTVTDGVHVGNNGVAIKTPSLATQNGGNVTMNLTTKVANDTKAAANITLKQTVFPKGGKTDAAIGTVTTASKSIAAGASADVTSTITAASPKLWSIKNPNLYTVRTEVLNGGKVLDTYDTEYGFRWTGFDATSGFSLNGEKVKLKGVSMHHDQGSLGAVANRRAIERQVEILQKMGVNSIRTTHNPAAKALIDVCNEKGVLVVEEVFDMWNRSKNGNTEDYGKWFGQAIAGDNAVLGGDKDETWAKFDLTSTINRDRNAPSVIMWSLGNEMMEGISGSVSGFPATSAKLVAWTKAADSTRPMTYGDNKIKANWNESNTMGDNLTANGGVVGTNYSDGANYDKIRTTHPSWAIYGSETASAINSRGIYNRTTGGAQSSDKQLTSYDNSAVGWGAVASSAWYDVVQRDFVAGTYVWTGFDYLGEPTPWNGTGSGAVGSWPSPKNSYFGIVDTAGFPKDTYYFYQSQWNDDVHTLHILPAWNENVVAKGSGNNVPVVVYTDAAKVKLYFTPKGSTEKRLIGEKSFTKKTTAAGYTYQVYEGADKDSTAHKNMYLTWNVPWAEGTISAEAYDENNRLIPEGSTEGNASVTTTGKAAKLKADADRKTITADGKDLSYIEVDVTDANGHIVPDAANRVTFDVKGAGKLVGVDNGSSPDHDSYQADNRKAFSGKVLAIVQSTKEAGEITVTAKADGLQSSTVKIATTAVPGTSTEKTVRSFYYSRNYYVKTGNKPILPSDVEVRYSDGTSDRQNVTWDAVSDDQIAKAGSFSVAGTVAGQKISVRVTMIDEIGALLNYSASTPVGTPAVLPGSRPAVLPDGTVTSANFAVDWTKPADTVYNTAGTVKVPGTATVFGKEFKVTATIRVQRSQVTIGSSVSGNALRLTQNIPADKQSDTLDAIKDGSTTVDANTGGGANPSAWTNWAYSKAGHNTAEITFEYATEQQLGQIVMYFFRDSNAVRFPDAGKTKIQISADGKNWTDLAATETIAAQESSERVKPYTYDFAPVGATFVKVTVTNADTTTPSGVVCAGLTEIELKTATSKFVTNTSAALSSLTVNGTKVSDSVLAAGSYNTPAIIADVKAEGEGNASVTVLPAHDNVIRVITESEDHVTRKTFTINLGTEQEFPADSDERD
T1 sequence (A4K5H9 entry or part of it): as above
Sequence of Bifidobacterium bifidum lactase (SEQ ID NO: 1) variant V1R (A4K5H9 entry or part of it V33R): as the sequence (A4K5H9 entry or part of it) above, with V1R counted along it
Sequence of Bifidobacterium bifidum lactase (SEQ ID NO: 1) variant E2G (A4K5H9 entry or part of it E34G): as the sequence (A4K5H9 entry or part of it) above, with E2G counted along it
Sequence of Bifidobacterium bifidum lactase (SEQ ID NO: 1) variant V1K (A4K5H9 entry or part of it V33K): as the sequence (A4K5H9 entry or part of it) above, with V1K counted along it
Sequence of Bifidobacterium bifidum lactase (SEQ ID NO: 1) variant V1D (A4K5H9 entry or part of it V33D): as the sequence (A4K5H9 entry or part of it) above, with V1D counted along it
Sequence of Bifidobacterium bifidum lactase (SEQ ID NO: 1) variant V1F (A4K5H9 entry or part of it V33F): as the sequence (A4K5H9 entry or part of it) above, with V1F counted along it

OC[C@H]1OC(O)[C@H](O)[C@@H](O)[C@H]1O (stereo partly drawn) [D-(+)-Galactose]
GI-IF (galactose inhibition assay improvement factor) [1]: 1.12 | GI-IF (galactose inhibition assay improvement factor) [2]: 1.23 | GI-IF (galactose inhibition assay improvement factor) [3]: 1.17 | GI-IF (galactose inhibition assay improvement factor) [4]: 1.11 | GI-IF (galactose inhibition assay improvement factor) [5]: 1.25 | galactose inhibition improvement factor (GI-IF) [6]: 1.0

OC[C@H]1OC(O)[C@H](O)[C@@H](O)[C@H]1O (stereo partly drawn) [galactose, D-(+)-Galactose]
IF (Ki galactose inhibition, E856 vs. G856) [7]: 0.98 | Ki [8]: 41.5 mM | Ki [9]: 40.6 mM

OC[C@H]1O[C@@H](O[C@H]2[C@H](O)[C@@H](O)C(O)O[C@@H]2CO)[C@H](O)[C@@H](O)[C@H]1O (stereo partly shown) [lactose]
IF (Km, E856 vs. G856) [10]: 0.98
